Assay results taken from ChEMBL document CHEMBL1154258, “Discovery and optimization of potent and selective functional antagonists of the human adenosine A2B receptor” (Bioorg Med Chem Lett, 2009).

Legend:
Adenosine receptor A2a = Adenosine receptor A2a (Homo sapiens, UniProt P29274); assay: Antagonist activity at human adenosine A2A receptor expressed in CHOK1 cells assessed as inhibition of calcium mobilization by FLIPR assay; type: functional, cell-based, CHO-K1
Adenosine receptor A2b = biological target: T1, Adenosine receptor A2b (Homo sapiens, UniProt P29275); assay: Antagonist activity at human adenosine A2B receptor expressed in CHOK1 cells assessed as inhibition of calcium mobilization by FLIPR assay; type: functional, cell-based, CHO-K1
T1 sequence (P29275 whole entry): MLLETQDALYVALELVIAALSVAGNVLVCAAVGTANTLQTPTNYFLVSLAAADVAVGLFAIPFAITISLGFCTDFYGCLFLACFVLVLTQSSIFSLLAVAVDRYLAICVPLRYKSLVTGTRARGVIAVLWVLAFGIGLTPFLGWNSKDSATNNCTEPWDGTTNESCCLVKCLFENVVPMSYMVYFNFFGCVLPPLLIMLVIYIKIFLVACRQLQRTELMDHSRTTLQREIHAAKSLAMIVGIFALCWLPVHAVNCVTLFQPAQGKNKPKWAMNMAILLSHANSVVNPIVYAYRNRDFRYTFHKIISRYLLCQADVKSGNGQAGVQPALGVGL

Plasma = assay: Clearance in human plasma
[1] = Half life in po dosed rat; type: ADME, organism-based; details: in vivo
Rattus norvegicus = assay: Volume of distribution in po dosed rat; type: ADME, organism-based; details: in vivo
[2] = Oral bioavailability in rat; type: ADME, organism-based; details: in vivo
Homo sapiens = organism: Homo sapiens; assay: Protein binding in human plasma; details: read-out: PPB (converted)
[3] = Permeability across human Caco-2 cells; type: ADME, cell-based; details: read-out: permeability
[4] = Clearance in po dosed rat; type: ADME, organism-based; details: in vivo
[5] = biological target: Voltage-gated inwardly rectifying potassium channel KCNH2 (Homo sapiens, UniProt Q12809); assay: Inhibition of human ERG at 30 uM by patch clamp method
Sequence of Voltage-gated inwardly rectifying potassium channel KCNH2 (Q12809 whole entry): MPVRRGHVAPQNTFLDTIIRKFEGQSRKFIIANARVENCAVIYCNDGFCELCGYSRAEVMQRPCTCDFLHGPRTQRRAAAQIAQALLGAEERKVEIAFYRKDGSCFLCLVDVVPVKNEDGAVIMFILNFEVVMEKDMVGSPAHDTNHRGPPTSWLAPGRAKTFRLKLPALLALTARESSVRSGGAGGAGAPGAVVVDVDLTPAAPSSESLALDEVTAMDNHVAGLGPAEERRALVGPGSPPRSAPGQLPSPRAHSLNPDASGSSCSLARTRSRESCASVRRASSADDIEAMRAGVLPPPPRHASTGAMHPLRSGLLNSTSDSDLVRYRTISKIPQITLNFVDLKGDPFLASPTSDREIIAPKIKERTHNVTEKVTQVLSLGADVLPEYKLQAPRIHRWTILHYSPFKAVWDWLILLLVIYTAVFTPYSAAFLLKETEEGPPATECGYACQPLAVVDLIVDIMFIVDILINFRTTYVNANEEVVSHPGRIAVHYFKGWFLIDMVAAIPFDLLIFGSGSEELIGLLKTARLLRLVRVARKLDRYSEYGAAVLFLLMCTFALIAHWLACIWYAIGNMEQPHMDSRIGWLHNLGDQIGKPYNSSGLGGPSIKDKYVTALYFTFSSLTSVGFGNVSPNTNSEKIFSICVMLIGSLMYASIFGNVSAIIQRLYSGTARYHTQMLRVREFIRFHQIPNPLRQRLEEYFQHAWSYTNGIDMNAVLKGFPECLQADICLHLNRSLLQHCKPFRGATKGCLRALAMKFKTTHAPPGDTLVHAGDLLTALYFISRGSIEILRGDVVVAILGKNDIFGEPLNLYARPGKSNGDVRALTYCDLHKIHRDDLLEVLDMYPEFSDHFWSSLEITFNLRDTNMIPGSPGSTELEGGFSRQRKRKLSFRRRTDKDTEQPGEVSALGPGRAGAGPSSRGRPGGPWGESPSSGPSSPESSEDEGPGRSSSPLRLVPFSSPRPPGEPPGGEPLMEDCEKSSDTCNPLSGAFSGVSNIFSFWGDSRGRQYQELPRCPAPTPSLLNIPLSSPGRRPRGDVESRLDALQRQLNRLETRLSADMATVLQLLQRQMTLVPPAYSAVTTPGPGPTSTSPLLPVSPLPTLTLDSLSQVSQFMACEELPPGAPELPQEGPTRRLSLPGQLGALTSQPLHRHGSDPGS

Sequence of Adenosine receptor A2a (P29274 whole entry): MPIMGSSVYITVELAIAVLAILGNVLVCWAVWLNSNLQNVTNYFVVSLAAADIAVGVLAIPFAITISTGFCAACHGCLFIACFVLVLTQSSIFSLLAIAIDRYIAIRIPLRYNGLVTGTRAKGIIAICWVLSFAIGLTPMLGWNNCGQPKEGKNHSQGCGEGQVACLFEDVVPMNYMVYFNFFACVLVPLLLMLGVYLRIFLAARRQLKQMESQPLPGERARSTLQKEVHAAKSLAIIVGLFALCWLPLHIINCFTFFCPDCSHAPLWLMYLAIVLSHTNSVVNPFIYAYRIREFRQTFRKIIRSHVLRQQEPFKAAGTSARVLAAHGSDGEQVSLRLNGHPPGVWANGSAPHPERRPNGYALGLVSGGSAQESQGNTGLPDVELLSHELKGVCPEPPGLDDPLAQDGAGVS

Structure (SMILES)	IC50 (Adenosine receptor A2a) [nM]	IC50 (Adenosine receptor A2b) [nM]	further results
Cc1nc(C(=O)c2ccc(C)s2)c2sccc2n1	7850	> 10000	
CCc1nc(C(=O)c2ccc(C)s2)c2sccc2n1	3850	3670	
Cc1ccc(C(=O)c2nc(N)nc3ccsc23)s1	220	758	
CCNc1nc(C(=O)c2ccc(C)s2)c2sccc2n1	126	1260	
Cc1ccc(C(=O)c2nc(NCC3CCCCC3)nc3ccsc23)s1	> 10000	> 10000	
Cc1ccc(C(=O)c2nc(NCc3ccccc3)nc3ccsc23)s1	7150	5580	
Cc1ccc(C(=O)c2nc(NCCc3ccccn3)nc3ccsc23)s1	351	944	
Cc1ccc(C(=O)c2nc(NCCc3cccnc3)nc3ccsc23)s1	177	450	
Cc1ccc(C(=O)c2nc(N(C)Cc3cccnc3)nc3ccsc23)s1	2270	4140	
Cc1ccc(C(=O)c2ncnc3ccsc23)s1	6690	5380	
O=C(c1ccc(Cl)s1)c1nc(NCc2cccnc2)nc2ccsc12	1540	487	
Cc1ccc(C(=O)c2nc(NCc3cccnc3)nc3ccsc23)o1	1250	468	
O=C(c1ccccc1)c1nc(NCc2cccnc2)nc2ccsc12	1620	511	
COc1ccc(C(=O)c2nc(NCc3cccnc3)nc3ccsc23)cc1	637	1300	
C[C@@H](Nc1nc(C(=O)N2CCCC2)c2sccc2n1)c1cccnc1	6760	3070	
O=C(c1ccncc1)c1nc(NCc2cccnc2)nc2ccsc12	1940	869	
CNC(=O)c1nc(NCc2cccnc2)nc2ccsc12		495	
O=C(NC1CCCCC1)c1nc(NCc2cccnc2)nc2ccsc12		571	

Stronger by IC50 (Adenosine receptor A2b), values ahead:

IC50 (Adenosine receptor A2a) [nM]	IC50 (Adenosine receptor A2b) [nM]	Structure (SMILES)	further results
1080	414	Cc1ccc(C(=O)c2nc(NC(C)c3ccccc3)nc3ccsc23)s1 (stereo not drawn)	
2610	309	CC(C)NC(=O)c1nc(NCc2cccnc2)nc2ccsc12	
161	287	Cc1ccc(C(=O)c2nc(NC(=O)c3cccnc3)nc3ccsc23)s1	
710	256	O=C(NC1CC1)c1nc(NCc2cccnc2)nc2ccsc12	
442	215	Cc1ccc(C(=O)c2nc(NCc3cccnc3)nc3ccsc23)cc1	
6140	189	O=C(c1nc(NCc2cccnc2)nc2ccsc12)N1CCCC1	
732	176	O=C(c1nccs1)c1nc(NCc2cccnc2)nc2ccsc12	
1720	148	O=C(c1cncs1)c1nc(NCc2cccnc2)nc2ccsc12	
405	148	O=C(c1ccsc1)c1nc(NCc2cccnc2)nc2ccsc12	
2520	120	CCNC(=O)c1nc(NCc2cccnc2)nc2ccsc12	
1170	109	O=C(c1cccnc1)c1nc(NCc2cccnc2)nc2ccsc12	
116	92	Cc1ccc(C(=O)c2nc(NCc3ccncn3)nc3ccsc23)s1	
990	55	Cc1ccc(C(=O)c2nc(NCc3cccnc3)nc3ccsc23)s1	
186	43	Cc1ccc(C(=O)c2nc(NCc3ccccn3)nc3ccsc23)s1	
1420	39	CN(C)c1cc2nc(NCc3cccnc3)nc(C(=O)c3cccs3)c2s1	
> 10000	32	Nc1cc2nc(NCc3cccnc3)nc(C(=O)c3cccs3)c2s1	
118	19	Cc1ccc(C(=O)c2nc(NC(C)c3ccccn3)nc3ccsc23)s1 (stereo not drawn)	
2490	19	CCNc1cc2nc(NCc3cccnc3)nc(C(=O)c3cccs3)c2s1	
51	18	O=C(c1cccs1)c1nc(NCc2cccnc2)nc2ccsc12	
468	18	C[C@H](Nc1nc(C(=O)N2CCCC2)c2sccc2n1)c1cccnc1	fraction unbound (Homo sapiens): 0.15; half-life [1]: 2.3 h; Papp [3]: 33 ×10⁻⁶ cm/s; CL/F [4]: 43.3 mL/min/kg; inhibition (INH) [5]: Not Active; Vd (Rattus norvegicus): 3.9 L/kg; bioavailability [2]: 84%
99	17	Cc1ccc(C(=O)c2nc(NC(C)c3cccnc3)nc3ccsc23)s1 (stereo not drawn)	
62	16	O=C(c1cccs1)c1nc(NCc2cccnc2)nc2cc(Cl)sc12	
2350	13	CC(Nc1nc(C(=O)N2CCCC2)c2sccc2n1)c1cccnc1 (racemic)	
965	3.5	CNc1cc2nc(NCc3cccnc3)nc(C(=O)c3cccs3)c2s1	CL (Plasma): 28.3 mL/min/kg; half-life [1]: 0.93 h; Vd (Rattus norvegicus): 2.2 L/kg; bioavailability [2]: 2%
